In patent US20250032460A1, “METHODS OF TREATING NEUROLOGICAL DISORDERS” (MapLight Therapeutics, Inc., priority 2021, published 2025):

Columns and labels:
salivation = test: Single ascending dose study: salivation (pharmacodynamics); format: in vivo, healthy adult volunteers; conditions: Group 2: 8 mg fesoterodine fumarate 4 hours prior to 40 mg Compound 1, vs placebo pre-treatment (FIG. 2)
Procedure: MTD was established at the dose which produced mild to moderate cholinergic adverse effects. Cholinergic effects were monitored for each dose, including pupillometry and salivation.
Group 2 evaluated tolerability of Compound 1 at Group 1 MTD with or without fesoterodine fumarate co-administration. Subjects received 8 mg of fesoterodine fumarate tablet or matched placebo tablet 4 hours prior to administration of 40 mg of Compound 1.

[1] = Clinical observations during 7-day oral dosing in beagle dogs; conditions: for Clinical Observation: Group 2: fesoterodine fumarate 3 mg/kg/day PO, individual dog
[2] = tested on: Compound 1 induced salivation; test: Fesoterodine dose-response antagonistic effect on Compound 1 induced salivation in anaesthetized rats; format: in vivo, Sprague Dawley rats
Procedure: An in vivo primary pharmacology study evaluating the fesoterodine fumarate dose-response antagonistic effect on Compound 1 induced salivation in anaesthetized male Sprague Dawley rats was conducted. […] Intravenous fesoterodine doses were administered at […]. Fesoterodine was dosed 10 minutes prior to dosage of Compound 1. All animals were normal with no observed abnormality detected in clinical signs or behavior. Salivation was measured by using oral dry swab in anesthetized rats with the calculated difference between the dry swab weight and the wet swab weight indicating the weight of saliva produced. Samples were collected post-dosing for one hour at 10-minute intervals.

[3] = Fesoterodine 0.0078 mg/mL IV 10 min prior to Compound 1 (1.5 mg/kg) IV
[4] = Fesoterodine 0.0156 mg/mL IV 10 min prior to Compound 1 (1.5 mg/kg) IV
[5] = Fesoterodine 0.0312 mg/mL IV 10 min prior to Compound 1 (1.5 mg/kg) IV
[6] = Fesoterodine 0.0625 mg/mL IV 10 min prior to Compound 1 (1.5 mg/kg) IV
[7] = Fesoterodine 0.125 mg/mL IV 10 min prior to Compound 1 (1.5 mg/kg) IV
[8] = Fesoterodine 0.25 mg/mL IV 10 min prior to Compound 1 (1.5 mg/kg) IV
[9] = Fesoterodine 0.5 mg/mL IV 10 min prior to Compound 1 (1.5 mg/kg) IV

## CC(C)C(=O)Oc1ccc(CO)cc1[C@H](CCN(C(C)C)C(C)C)c1ccccc1 [Fesoterodine, fesoterodine]
salivation; listed as fesoterodine
  effect of fesoterodine pre-treatment on the increase in salivation post Compound 1 dosing: nearly abolished both subjective reports of hypersalivation and the objective increase in saliva volume
salivation; listed as fesoterodine fumarate
  effect of fesoterodine pre-treatment on the increase in salivation post Compound 1 dosing: not observed
[1]; Group 1 Compound 1 1.5 mg/kg/day PO alone, Group 3 with fesoterodine fumarate 3 mg/kg/day PO, 7 days
  peripheral side effects observed after dosing: substantially reduced the peripheral effects
[1]; 7 day period
  Clinical Observation: none
[1]; day 1
  Clinical Observation: For D2001, miosis was found 1 hr 10 min after dosing on day 1. 2 hr
[2]; [3]
  Salivation (mg) (mean value), 10 min: 347.49 mg
  Salivation (mg) (mean value), 20 min: 90.03 mg
  Salivation (mg) (mean value), 30 min: 26.31 mg
  Salivation (mg) (mean value), 40 min: 10.29 mg
  Salivation (mg) (mean value), 50 min: 9.96 mg
  Salivation (mg) (mean value), 60 min: 7.74 mg
  Salivation (mg) (mean value), Total: 491.83 mg
[2]; [4]
  Salivation (mg) (mean value), 10 min: 163.43 mg
  Salivation (mg) (mean value), 20 min: 69.8 mg
  Salivation (mg) (mean value), 30 min: 30.58 mg
  Salivation (mg) (mean value), 40 min: 16.26 mg
  Salivation (mg) (mean value), 50 min: 11.66 mg
  Salivation (mg) (mean value), 60 min: 5.71 mg
  Salivation (mg) (mean value), Total: 297.45 mg
[2]; [5]
  Salivation (mg) (mean value), 10 min: 95.37 mg
  Salivation (mg) (mean value), 20 min: 61.86 mg
  Salivation (mg) (mean value), 30 min: 29.68 mg
  Salivation (mg) (mean value), 40 min: 8.31 mg
  Salivation (mg) (mean value), 50 min: 8.78 mg
  Salivation (mg) (mean value), 60 min: 6.64 mg
  Salivation (mg) (mean value), Total: 210.64 mg
[2]; [6]
  Salivation (mg) (mean value), 10 min: 66.8 mg
  Salivation (mg) (mean value), 20 min: 27.58 mg
  Salivation (mg) (mean value), 30 min: 12.89 mg
  Salivation (mg) (mean value), 40 min: 9.18 mg
  Salivation (mg) (mean value), 50 min: 6.56 mg
  Salivation (mg) (mean value), 60 min: 2.45 mg
  Salivation (mg) (mean value), Total: 125.47 mg
[2]; [7]
  Salivation (mg) (mean value), 10 min: 45.22 mg
  Salivation (mg) (mean value), 20 min: 21.91 mg
  Salivation (mg) (mean value), 30 min: 7.85 mg
  Salivation (mg) (mean value), 40 min: 5.06 mg
  Salivation (mg) (mean value), 50 min: 4.73 mg
  Salivation (mg) (mean value), 60 min: 3.5 mg
  Salivation (mg) (mean value), Total: 88.27 mg
[2]; [8]
  Salivation (mg) (mean value), 10 min: 7 mg
  Salivation (mg) (mean value), 20 min: 3.13 mg
  Salivation (mg) (mean value), 30 min: 3.17 mg
  Salivation (mg) (mean value), 40 min: 2.15 mg
  Salivation (mg) (mean value), 50 min: 2.49 mg
  Salivation (mg) (mean value), 60 min: 1.37 mg
  Salivation (mg) (mean value), Total: 19.31 mg
[2]; [9]
  Salivation (mg) (mean value), 10 min: 7.23 mg
  Salivation (mg) (mean value), 20 min: 2.83 mg
  Salivation (mg) (mean value), 30 min: 1.21 mg
  Salivation (mg) (mean value), 40 min: 4.11 mg
  Salivation (mg) (mean value), 50 min: 2.5 mg
  Salivation (mg) (mean value), 60 min: 1.8 mg
  Salivation (mg) (mean value), Total: 19.69 mg
[2]; Fesoterodine 0.0078-0.5 mg/mL IV prior to Compound 1
  Fesoterodine effect with Compound 1 on salivation: significant decrease of salivation in a consistent dose-responsive manner
